Assay results published in the kinase profiling compilation of Christmann-Franck et al. (2016).

Experiments:
Assay in all cases: KINOMEscan competition binding
Conditions in all cases: compound 1.0 µM
AKT3 (human) = AKT3 (human) (UniProt Q9Y243)
ALK (human) = ALK (human) (UniProt Q9UM73)
CDC2L2 (human) = CDC2L2 (human) (UniProt Q9UQ88)
CDK18 (human) = CDK18 (human) (UniProt Q07002)
CDK5 (human) = CDK5 (human) (UniProt Q00535)
CDKL3 (human) = CDKL3 (human) (UniProt Q8IVW4)
CPK1 (P.falciparum) = system: CPK1 (P.falciparum)
CSK (human) = CSK (human) (UniProt P41240)
[1] = system: EGFR (human), P00533 [746-750 del]
[2] = system: EGFR (human), P00533 [752-759 del]
EPHA8 (human) = EPHA8 (human) (UniProt P29322)
ERBB2 (human) = ERBB2 (human) (UniProt P04626)
ERBB2 (human), sequence (P04626 whole entry, looked up): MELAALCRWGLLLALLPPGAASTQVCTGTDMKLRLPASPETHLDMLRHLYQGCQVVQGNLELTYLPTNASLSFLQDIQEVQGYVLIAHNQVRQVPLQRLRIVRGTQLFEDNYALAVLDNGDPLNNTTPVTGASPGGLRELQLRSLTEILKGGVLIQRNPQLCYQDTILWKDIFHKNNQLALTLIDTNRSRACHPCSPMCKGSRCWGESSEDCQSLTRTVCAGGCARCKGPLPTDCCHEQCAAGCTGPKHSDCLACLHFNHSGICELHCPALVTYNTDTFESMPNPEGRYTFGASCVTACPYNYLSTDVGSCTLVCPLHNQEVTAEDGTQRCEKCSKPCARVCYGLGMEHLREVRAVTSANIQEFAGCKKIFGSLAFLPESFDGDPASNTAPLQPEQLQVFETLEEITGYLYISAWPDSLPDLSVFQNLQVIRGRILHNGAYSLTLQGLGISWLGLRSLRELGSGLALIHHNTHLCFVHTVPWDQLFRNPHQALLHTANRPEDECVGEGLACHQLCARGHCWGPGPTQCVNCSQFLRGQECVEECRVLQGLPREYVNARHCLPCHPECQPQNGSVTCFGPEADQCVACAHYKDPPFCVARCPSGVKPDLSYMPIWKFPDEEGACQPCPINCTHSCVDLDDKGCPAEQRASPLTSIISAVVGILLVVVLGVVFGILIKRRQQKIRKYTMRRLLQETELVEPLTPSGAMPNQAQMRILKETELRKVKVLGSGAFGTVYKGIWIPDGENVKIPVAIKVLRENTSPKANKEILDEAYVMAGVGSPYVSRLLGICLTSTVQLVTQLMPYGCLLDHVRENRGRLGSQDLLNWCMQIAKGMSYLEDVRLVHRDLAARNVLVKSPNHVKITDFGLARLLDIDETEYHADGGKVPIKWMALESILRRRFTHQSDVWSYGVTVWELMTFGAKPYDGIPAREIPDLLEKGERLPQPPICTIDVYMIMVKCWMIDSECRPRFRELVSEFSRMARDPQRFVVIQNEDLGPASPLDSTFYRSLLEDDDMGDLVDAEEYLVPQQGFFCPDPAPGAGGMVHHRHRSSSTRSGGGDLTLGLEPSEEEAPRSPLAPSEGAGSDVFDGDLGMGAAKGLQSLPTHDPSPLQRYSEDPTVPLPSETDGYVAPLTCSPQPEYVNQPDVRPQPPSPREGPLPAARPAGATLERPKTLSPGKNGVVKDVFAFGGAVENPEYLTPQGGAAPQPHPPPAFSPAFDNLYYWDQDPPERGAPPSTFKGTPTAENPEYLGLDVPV

FGFR1 (human) = FGFR1 (human) (UniProt P11362)
[3] = system: FLT3 (human), P36888 [D835H]
FLT4 (human) = FLT4 (human) (UniProt P35916)
FLT4 (human), sequence (P35916 whole entry, looked up): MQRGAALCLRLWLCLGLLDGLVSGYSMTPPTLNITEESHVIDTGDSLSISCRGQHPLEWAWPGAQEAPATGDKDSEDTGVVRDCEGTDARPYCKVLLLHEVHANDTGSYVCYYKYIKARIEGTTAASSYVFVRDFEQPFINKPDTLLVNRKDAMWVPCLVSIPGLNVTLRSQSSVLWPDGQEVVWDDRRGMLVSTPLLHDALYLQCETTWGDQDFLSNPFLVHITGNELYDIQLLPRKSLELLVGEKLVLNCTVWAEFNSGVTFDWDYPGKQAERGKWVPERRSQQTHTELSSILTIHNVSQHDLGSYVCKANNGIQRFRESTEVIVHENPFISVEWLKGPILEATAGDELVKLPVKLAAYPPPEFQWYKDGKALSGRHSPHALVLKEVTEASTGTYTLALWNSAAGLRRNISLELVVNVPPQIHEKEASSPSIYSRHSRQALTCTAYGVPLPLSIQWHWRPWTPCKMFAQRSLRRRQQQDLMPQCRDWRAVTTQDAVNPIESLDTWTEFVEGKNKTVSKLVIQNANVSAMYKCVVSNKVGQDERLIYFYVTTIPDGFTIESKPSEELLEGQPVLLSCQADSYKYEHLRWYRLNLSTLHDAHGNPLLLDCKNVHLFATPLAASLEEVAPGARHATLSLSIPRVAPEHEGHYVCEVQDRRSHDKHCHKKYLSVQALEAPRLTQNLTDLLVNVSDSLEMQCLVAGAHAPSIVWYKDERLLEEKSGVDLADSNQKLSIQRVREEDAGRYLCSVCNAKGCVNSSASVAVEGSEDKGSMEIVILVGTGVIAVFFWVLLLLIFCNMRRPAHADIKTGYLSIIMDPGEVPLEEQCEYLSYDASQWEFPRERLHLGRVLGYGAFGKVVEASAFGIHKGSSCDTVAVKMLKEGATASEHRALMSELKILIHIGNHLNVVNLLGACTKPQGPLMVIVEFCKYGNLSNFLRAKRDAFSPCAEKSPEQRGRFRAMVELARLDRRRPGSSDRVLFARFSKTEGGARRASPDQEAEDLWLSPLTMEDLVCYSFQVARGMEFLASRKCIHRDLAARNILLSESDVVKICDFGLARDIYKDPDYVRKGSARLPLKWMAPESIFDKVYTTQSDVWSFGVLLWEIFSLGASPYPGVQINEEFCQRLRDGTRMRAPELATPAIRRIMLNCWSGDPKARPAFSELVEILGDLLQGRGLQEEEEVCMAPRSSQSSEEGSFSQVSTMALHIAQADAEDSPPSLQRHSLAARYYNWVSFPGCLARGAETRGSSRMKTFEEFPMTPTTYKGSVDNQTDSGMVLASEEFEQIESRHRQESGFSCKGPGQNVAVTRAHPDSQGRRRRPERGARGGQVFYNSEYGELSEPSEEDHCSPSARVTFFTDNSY

GSK3A (human) = GSK3A (human) (UniProt P49840)
HIPK2 (human) = HIPK2 (human) (UniProt Q9H2X6)
ICK (human) = ICK (human) (UniProt Q9UPZ9)
ICK (human), sequence (Q9UPZ9 whole entry, looked up): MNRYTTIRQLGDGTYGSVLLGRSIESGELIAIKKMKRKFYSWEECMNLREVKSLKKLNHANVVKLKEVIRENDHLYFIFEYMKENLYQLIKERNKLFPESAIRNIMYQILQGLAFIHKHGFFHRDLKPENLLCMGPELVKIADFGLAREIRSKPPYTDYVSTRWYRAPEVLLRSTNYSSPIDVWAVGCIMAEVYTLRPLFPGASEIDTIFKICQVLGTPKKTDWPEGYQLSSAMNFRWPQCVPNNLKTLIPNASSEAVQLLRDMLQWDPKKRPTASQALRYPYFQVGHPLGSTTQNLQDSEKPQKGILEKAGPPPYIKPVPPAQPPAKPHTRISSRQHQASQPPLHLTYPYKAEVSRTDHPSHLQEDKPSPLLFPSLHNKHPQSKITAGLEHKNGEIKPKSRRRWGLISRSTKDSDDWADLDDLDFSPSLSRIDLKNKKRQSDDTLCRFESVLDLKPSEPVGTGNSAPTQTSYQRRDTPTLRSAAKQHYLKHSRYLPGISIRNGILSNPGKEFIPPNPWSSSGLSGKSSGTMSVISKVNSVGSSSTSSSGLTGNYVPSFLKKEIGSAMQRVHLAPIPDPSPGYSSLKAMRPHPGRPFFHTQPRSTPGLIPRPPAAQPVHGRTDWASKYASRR

IRAK4 (human) = IRAK4 (human) (UniProt Q9NWZ3)
[4] = molecular target: JAK2 JH1 catalytic (human) (UniProt O60674)
KDR (human) = KDR (human) (UniProt P35968)
LATS2 (human) = LATS2 (human) (UniProt Q9NRM7)
LIMK2 (human) = LIMK2 (human) (UniProt P53671)
LYN (human) = LYN (human) (UniProt P07948)
MAP3K6 (human) = MAP3K6 (human) (UniProt O95382)
MAP4K2 (human) = MAP4K2 (human) (UniProt Q12851)
MAPK1 (human) = MAPK1 (human) (UniProt P28482)
MAPK1 (human), sequence (P28482 whole entry, looked up): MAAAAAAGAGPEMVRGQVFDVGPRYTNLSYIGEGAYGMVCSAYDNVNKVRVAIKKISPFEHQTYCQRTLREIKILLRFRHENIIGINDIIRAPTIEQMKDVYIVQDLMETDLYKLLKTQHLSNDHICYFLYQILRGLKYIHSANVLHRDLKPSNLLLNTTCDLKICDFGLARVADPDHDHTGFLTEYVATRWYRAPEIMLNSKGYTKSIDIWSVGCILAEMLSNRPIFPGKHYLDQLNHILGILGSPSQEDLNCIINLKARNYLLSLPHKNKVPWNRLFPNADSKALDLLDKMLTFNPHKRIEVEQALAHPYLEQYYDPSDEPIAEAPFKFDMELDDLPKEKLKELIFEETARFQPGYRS

MAPK11 (human) = MAPK11 (human) (UniProt Q15759)
MYLK2 (human) = MYLK2 (human) (UniProt Q9H1R3)
NIM1 (human) = NIM1 (human) (UniProt Q8IY84)
[5] = system: PIK3CA (human), P42336 [I800L]
PIP4K2C (human) = PIP4K2C (human) (UniProt Q8TBX8)
PRPF4B (human) = PRPF4B (human) (UniProt Q13523)
PTK2 (human) = PTK2 (human) (UniProt Q05397)
RPS6KA4 KD1 (human) = RPS6KA4 KD1 (human) (UniProt O75676)
RPS6KA5 KD2 (human) = RPS6KA5 KD2 (human) (UniProt O75582)
TAOK2 (human) = TAOK2 (human) (UniProt Q9UL54)
TSSK1B (human) = TSSK1B (human) (UniProt Q9BXA7)
TXK (human) = TXK (human) (UniProt P42681)
[6] = molecular target: TYK2 JH1 catalytic (human) (UniProt P29597)
TYK2 JH1 catalytic (human), sequence (P29597 whole entry, looked up): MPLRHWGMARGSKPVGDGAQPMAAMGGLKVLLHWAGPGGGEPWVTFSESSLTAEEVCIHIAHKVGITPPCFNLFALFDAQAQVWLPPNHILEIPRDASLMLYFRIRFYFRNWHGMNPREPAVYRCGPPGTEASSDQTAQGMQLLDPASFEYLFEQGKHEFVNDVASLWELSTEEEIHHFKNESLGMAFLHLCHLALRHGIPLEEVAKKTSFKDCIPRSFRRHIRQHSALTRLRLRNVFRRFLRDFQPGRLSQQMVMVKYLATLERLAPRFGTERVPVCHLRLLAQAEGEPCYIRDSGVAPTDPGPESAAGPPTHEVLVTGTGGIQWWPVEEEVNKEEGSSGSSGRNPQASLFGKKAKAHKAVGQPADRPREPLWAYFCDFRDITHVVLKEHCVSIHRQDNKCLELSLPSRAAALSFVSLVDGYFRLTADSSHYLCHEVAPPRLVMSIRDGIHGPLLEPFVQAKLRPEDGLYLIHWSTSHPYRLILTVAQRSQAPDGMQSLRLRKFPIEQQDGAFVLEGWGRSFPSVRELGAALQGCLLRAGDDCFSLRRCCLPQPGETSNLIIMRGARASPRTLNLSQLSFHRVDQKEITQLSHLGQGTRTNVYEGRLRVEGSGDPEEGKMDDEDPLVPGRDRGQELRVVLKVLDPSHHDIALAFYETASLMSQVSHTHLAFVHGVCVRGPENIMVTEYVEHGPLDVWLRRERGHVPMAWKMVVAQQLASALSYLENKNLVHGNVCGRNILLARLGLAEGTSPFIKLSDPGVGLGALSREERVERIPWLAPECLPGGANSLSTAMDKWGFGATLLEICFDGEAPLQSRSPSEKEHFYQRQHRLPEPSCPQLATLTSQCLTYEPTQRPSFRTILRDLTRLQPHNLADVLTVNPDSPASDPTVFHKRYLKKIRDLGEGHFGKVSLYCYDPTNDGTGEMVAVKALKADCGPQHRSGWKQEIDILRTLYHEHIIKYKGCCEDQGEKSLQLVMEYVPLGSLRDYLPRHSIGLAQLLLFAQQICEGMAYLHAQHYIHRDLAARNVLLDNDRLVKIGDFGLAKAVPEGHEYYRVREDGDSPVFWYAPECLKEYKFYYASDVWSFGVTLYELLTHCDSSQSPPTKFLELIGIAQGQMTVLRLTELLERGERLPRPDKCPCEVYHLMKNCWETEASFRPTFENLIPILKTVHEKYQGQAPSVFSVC

ULK1 (human) = ULK1 (human) (UniProt O75385)

CDK5 (human), sequence (Q00535 whole entry, looked up): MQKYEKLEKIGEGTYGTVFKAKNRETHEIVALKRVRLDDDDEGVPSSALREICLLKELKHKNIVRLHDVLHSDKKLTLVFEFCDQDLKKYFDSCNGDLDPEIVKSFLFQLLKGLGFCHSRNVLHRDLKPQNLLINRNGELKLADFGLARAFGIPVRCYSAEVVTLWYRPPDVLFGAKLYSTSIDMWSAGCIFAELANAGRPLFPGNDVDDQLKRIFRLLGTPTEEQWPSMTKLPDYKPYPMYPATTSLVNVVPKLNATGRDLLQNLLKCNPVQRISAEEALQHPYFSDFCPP

With `CN(C)C/C=C/C(=O)Nc1cccc(C(=O)Nc2ccc(Nc3nccc(/C(C#N)=C4\Nc5ccccc5S4)n3)cc2)c1` the kinase still bound, per cent of control (AKT3 (human)) was 100%, the kinase still bound, per cent of control (ALK (human)) was 100% and the kinase still bound, per cent of control (CDC2L2 (human)) was 39%. The kinase still bound, per cent of control (CDK18 (human)) was 100%, the kinase still bound, per cent of control (CDK5 (human)) was 100% and the kinase still bound, per cent of control (CDKL3 (human)) was 100%. For the same compound, the kinase still bound, per cent of control (CPK1 (P.falciparum)) was 96%, the kinase still bound, per cent of control (CSK (human)) was 100% and the kinase still bound, per cent of control [1] was 72%. The kinase still bound, per cent of control [2] was 95%, the kinase still bound, per cent of control (EPHA8 (human)) was 100% and the kinase still bound, per cent of control (ERBB2 (human)) was 100%. For the same compound, the kinase still bound, per cent of control (FGFR1 (human)) was 100%, the kinase still bound, per cent of control [3] was 62% and the kinase still bound, per cent of control (FLT4 (human)) was 78%. It also gave a kinase still bound, per cent of control (GSK3A (human)) of 59%, a kinase still bound, per cent of control (HIPK2 (human)) of 60% and a kinase still bound, per cent of control (ICK (human)) of 100%. The kinase still bound, per cent of control (IRAK4 (human)) was 71%, the kinase still bound, per cent of control [4] was 100% and the kinase still bound, per cent of control (KDR (human)) was 55%. It also gave a kinase still bound, per cent of control (LATS2 (human)) of 100%, a kinase still bound, per cent of control (LIMK2 (human)) of 97% and a kinase still bound, per cent of control (LYN (human)) of 94%. It also gave a kinase still bound, per cent of control (MAP3K6 (human)) of 100%, a kinase still bound, per cent of control (MAP4K2 (human)) of 100% and a kinase still bound, per cent of control (MAPK1 (human)) of 100%. For the same compound, the kinase still bound, per cent of control (MAPK11 (human)) was 100%, the kinase still bound, per cent of control (MYLK2 (human)) was 100% and the kinase still bound, per cent of control (NIM1 (human)) was 86%. The kinase still bound, per cent of control [5] was 100%, the kinase still bound, per cent of control (PIP4K2C (human)) was 35% and the kinase still bound, per cent of control (PRPF4B (human)) was 100%. It also gave a kinase still bound, per cent of control (PTK2 (human)) of 100%, a kinase still bound, per cent of control (RPS6KA4 KD1 (human)) of 89% and a kinase still bound, per cent of control (RPS6KA5 KD2 (human)) of 100%. For the same compound, the kinase still bound, per cent of control (TAOK2 (human)) was 100%, the kinase still bound, per cent of control (TSSK1B (human)) was 100% and the kinase still bound, per cent of control (TXK (human)) was 100%. It also gave a kinase still bound, per cent of control [6] of 72% and a kinase still bound, per cent of control (ULK1 (human)) of 92%.
